# Values of other authors as cited in patent publication US20070010426A1, “Composition for preventing and treating cardiovascular disorders” (Maxluck Biotechnology Corp., priority 2005, published 2007).
# System: obese mouse
substance,measurement,value
chromium picolinate,Effect on blood lipids,reduce the blood lipids
